Earlier results as cited in patent US20140348873A1, “Urea-Silicone Gel for Hyperkeratosis Treatment” (PROFESSIONAL COMPOUNDING CENTERS OF AMERICA, priority 2013, published 2014).

Settings: general background statement; no experiment described

Compound: NC(N)=O [Urea]
- water content of the skin, level reached with urea: 97.8%
